Measured values as given in patent US11793824B2, “Administration of nicotinamide mononucleotide in the treatment of disease” (Washington University, priority 2013, dated 2023).
“Also recorded” adds a separate entry of the source.

How the values were obtained:
[1] = tested on: neurospheres (NSPCs); test: Microarray with parametric analysis of gene set enrichment (PAGE) of FK866-treated neurospheres; format: cell-based, mouse
Procedure: For individual genes, raw microarray data were subjected to Z score transformation, and Z ratios were calculated as described previously (Cheadle et al, 2003). Subsequent analysis and Parametric Analysis of Gene Set Enrichment (PAGE) analysis was performed as previously described (Yoshino et al, 2011). The microarray data used in this study has been deposited into the NCBI GEO database (GEO accession number GSE49784).
The inventors investigated how inhibition of Nampt affects neurosphere proliferation. […] To distinguish whether this decrease in cell number was due to an inhibition of proliferation or enhancement of death, the inventors analyzed the protein levels of markers of proliferation, apoptosis, and autophagy. […] Parametric analysis of gene enrichment (PAGE) was conducted based on microarray analyses. See the Methods section. […] Data are presented as mean±s.e.m. *P<0.05. **P<0.01. ***P<0.001.

[2] = 12 month-long NMN administration study: adverse effects and toxicity; format: in vivo
Procedure: (§1) A 12 month-long NMN administration study using wild-type mice under a regular chow-fed condition was conducted. NMN was administered through drinking water, and two doses of NMN, 100 and 300 mg/kg body weight/day, were tested. […] To assess beneficial and possible adverse effects of NMN, a variety of physiological parameters were periodically monitored, including body weight, body temperature, food and water intake, fed and fasted blood glucose levels, fed and fasted plasma lipid panels, and glucose and insulin tolerance, in NMN-administered and control mice. Blood chemistry, blood cell counts, urine strip test, and other physiological tests including physical activity test were also checked.

[3] = Bone mineral density by dual-energy X-ray absorptiometry (DXA); format: in vivo, mouse; conditions: 12-month time point, 17-18 month old mice
Procedure: as §1
The inventors measured the bone mineral density (BMD) of control and NMN-treated mice at the 12-month time point of a 12 month long NMN administration experiment by dual-energy X-ray absorptiometry (DXA). At this time point, mice were 17-18 month old.

[4] = FK866 10 nM 48 hours, downregulated pathway
[5] = FK866 10 nM 48 hours, upregulated pathway

## O=C(/C=C/c1cccnc1)NCCCCC1CCN(C(=O)c2ccccc2)CC1 [FK866]
[1]; [4]
  Z Ratio: BASE_EXCISION_REPAIR: −4.3
  Z Ratio: CELL_CYCLE_CHECKPOINT_GO_0000075: −3.92
  Z Ratio: CELL_CYCLE_GO_0007049: −4.63
  Z Ratio: CELL_CYCLE_PHASE: −4.23
  Z Ratio: CELL_CYCLE_PROCESS: −4.75
  Z Ratio: CHROMOSOMAL_PART: −3.48
  Z Ratio: CHROMOSOME: −4.75
  Z Ratio: CONDENSED_CHROMOSOME: −3.57
  Z Ratio: CONDENSED_NUCLEAR_CHROMOSOME: −3.36
  Z Ratio: DNA_DEPENDENT_DNA_REPLICATION: −6.07
  Z Ratio: DNA_INTEGRITY_CHECKPOINT: −3.2
  Z Ratio: DNA_METABOLIC_PROCESS: −6.49
  Z Ratio: DNA_RECOMBINATION: −3.69
  Z Ratio: DNA_REPAIR: −5.98
  Z Ratio: DNA_REPLICATION: −6.2
  Z Ratio: DOUBLE_STRANDED_DNA_BINDING: −3.95
  Z Ratio: HYDROLASE_ACTIVITY_HYDROLYZING_N_GLYCOSYL_COMPOUNDS: −3.63
  Z Ratio: INTERPHASE: −3.28
  Z Ratio: INTERPHASE_OF_MITOTIC_CELL_CYCLE: −3.07
  Z Ratio: INTRACELLULAR_NON_MEMBRANE_BOUND_ORGANELLE: −3.46
  Z Ratio: INTRACELLULAR_ORGANELLE_PART: −5.85
  Z Ratio: MACROMOLECULAR_COMPLEX: −4.14
  Z Ratio: MEMBRANE_ENCLOSED_LUMEN: −5.04
  Z Ratio: METHYLTRANSFERASE_ACTIVITY: −3.3
  Z Ratio: MITOTIC_CELL_CYCLE: −3.48
  Z Ratio: M_PHASE: −3.67
  Z Ratio: NON_MEMBRANE_BOUND_ORGANELLE: −3.46
  Z Ratio: NUCLEAR_CHROMOSOME: −4.11
  Z Ratio: NUCLEAR_LUMEN: −4.74
  Z Ratio: NUCLEAR_PART: −7.07
  Z Ratio: NUCLEOBASE_NUCLEOSIDE_AND_NUCLEOTIDE_METABOLIC_PROCESS: −3.35
  Z Ratio: NUCLEOBASE_NUCLEOSIDE_NUCLEOTIDE_AND_NUCLEIC_ACID: −5.34
  Z Ratio: NUCLEOLUS: −3.47
  Z Ratio: NUCLEOPLASM: −3.62
  Z Ratio: NUCLEOTIDE_METABOLIC_PROCESS: −3.21
  Z Ratio: NUCLEUS: −5.95
  Z Ratio: ORGANELLE_LUMEN: −5.04
  Z Ratio: ORGANELLE_PART: −5.72
  Z Ratio: PROTEIN_COMPLEX: −3.08
  Z Ratio: REPLICATION_FORK: −3.6
  Z Ratio: RESPONSE_TO_DNA_DAMAGE_STIMULUS: −5.8
  Z Ratio: RESPONSE_TO_ENDOGENOUS_STIMULUS: −4.18
  Z Ratio: RIBONUCLEOPROTEIN_COMPLEX: −3.49
  Z Ratio: RNA_BINDING: −3.44
  Z Ratio: RNA_PROCESSING: −4.32
  Z Ratio: SINGLE_STRANDED_DNA_BINDING: −3.17
  Z Ratio: STRUCTURE_SPECIFIC_DNA_BINDING: −4.08
  Z Ratio: TRANSFERASE_ACTIVITY_TRANSFERRING_ONE_CARBON_GROUPS: −3.37
  Z Ratio: TRNA_METABOLIC_PROCESS: −3.76
  Z Ratio: TRNA_PROCESSING: −3.51
[1]; [5]
  Z Ratio: ACTIN_FILAMENT_BASED_PROCESS: 3.18
  Z Ratio: ANATOMICAL_STRUCTURE_DEVELOPMENT: 4.47
  Z Ratio: ANATOMICAL_STRUCTURE_MORPHOGENESIS: 3.39
  Z Ratio: AXON_GUIDANCE: 3.34
  Z Ratio: CELL_DEVELOPMENT: 3.44
  Z Ratio: CELL_JUNCTION: 3.29
  Z Ratio: CELL_MATRIX_ADHESION: 3.18
  Z Ratio: CELL_MATRIX_JUNCTION: 3.20
  Z Ratio: CELL_SUBSTRATE_ADHERENS_JUNCTION: 3.17
  Z Ratio: CELL_SURFACE_RECEPTOR_LINKED_SIGNAL_TRANS-DUCTION_GO_000166: 3.17
  Z Ratio: CYTOSKELETAL_PROTEIN_BINDING: 3.36
  Z Ratio: EARLY_ENDOSOME: 3.37
  Z Ratio: ENZYME_LINKED_RECEPTOR_PROTEIN_SIGNALING_PATHWAY: 4.05
  Z Ratio: EXTRACELLULAR_REGION: 4.10
  Z Ratio: EXTRACELLULAR_REGION_PART: 3.82
  Z Ratio: EXTRACELLULAR_SPACE: 3.66
  Z Ratio: FOCAL_ADHESION: 3.44
  Z Ratio: FOCAL_ADHESION_FORMATION: 3.83
  Z Ratio: GENERATION_OF_NEURONS: 3.34
  Z Ratio: Growth: 3.85
  Z Ratio: IDENTICAL_PROTEIN_BINDING: 3.19
  Z Ratio: INTERMEDIATE_FILAMENT: 3.61
  Z Ratio: INTERMEDIATE_FILAMENT_CYTOSKELETON: 3.61
  Z Ratio: LIGAND_DEPENDENT_NUCLEAR_RECEPTOR_ACTIVITY: 3.26
  Z Ratio: LIPID_HOMEOSTASIS: 3.28
  Z Ratio: MEMBRANE: 3.55
  Z Ratio: MESODERM_DEVELOPMENT: 3.45
  Z Ratio: MULTICELLULAR_ORGANISMAL_DEVELOPMENT: 4.64
  Z Ratio: NEGATIVE_REGULATION_OF_GROWTH: 3.84
  Z Ratio: NERVOUS_SYSTEM_DEVELOPMENT: 3.39
  Z Ratio: NEUROGENESIS: 3.21
  Z Ratio: NEURON_PROJECTION: 3.62
  Z Ratio: OLIGOSACCHARIDE_METABOLIC_PROCESS: 3.82
  Z Ratio: ORGAN_DEVELOPMENT: 4.28
  Z Ratio: PDZ_DOMAIN_BINDING: 3.26
  Z Ratio: PHOSPHOINOSITIDE_BINDING: 4.49
  Z Ratio: PLASMA_MEMBRANE: 3.46
  Z Ratio: POSITIVE_REGULATION_OF_SECRETION: 3.51
  Z Ratio: RECEPTOR_BINDING: 4.25
  Z Ratio: REGULATION_OF_CELL_GROWTH: 3.49
  Z Ratio: REGULATION_OF_GROWTH: 3.48
  Z Ratio: REGULATION_OF_SIGNAL_TRANSDUCTION: 3.77
  Z Ratio: SENSORY_PERCEPTION: 3.57
  Z Ratio: SIALYLTRANSFERASE_ACTIVITY: 1.61
  Z Ratio: SIGNAL_TRANSDUCTION: 3.47
  Z Ratio: SYSTEM_DEVELOPMENT: 4.69
  Z Ratio: SYSTEM_PROCESS: 3.74
  Z Ratio: TASTE_RECEPTOR_ACTIVITY: 3.36
  Z Ratio: TRANSMEMBRANE_RECEPTOR_PROTEIN_TYROSINE_KINASE_SIGNALING_PATH: 3.18
  Z Ratio: VACUOLE: 3.19
[1]; FK866-treated neurospheres
  number of the top 50 downregulated pathways related to the cell cycle: 13
  top 50 upregulated pathways involved in cell death: none

## NC(=O)c1ccc[n+]([C@@H]2O[C@H](COP(=O)([O-])O)[C@@H](O)[C@H]2O)c1 [NMN, nicotinamide mononucleotide]
[2]; 100 mg/kg or 300 mg/kg body weight/day in drinking water, 12 months
  adverse effects or signs of toxicity: no adverse effects, such as malnutrition, or signs of toxicity were observed; also recorded: without showing any serious side effects
[2]; NMN in drinking water, through the experimental period
  water intake: did not change significantly
[2]; long-term NMN administration
  adverse effect on glucose metabolism: does not show any adverse effect on glucose metabolism
[3]; 100 mg/kg group
  increase in the BMD: 2.8%
[3]; 300 mg/kg group
  increase in the BMD: 5.9%
